Assay results taken from patent publication US20220265635A1, “TREATMENT OF NEUROLOGICAL DISEASE” (Aclipse One Inc., priority 2018, published 2022).
Marks after values point to notes of the source that are not given here.

What was measured:
[1] = system: NRF2; assay: Example 2 in vivo pharmacodynamic study via subcutaneous dosing, cortex: expression of genes upregulated by NRF2 activation; settings: wildtype mouse cortex, 5 mg/kg s.c. once daily 7 days, compared to Gapdh
Description: Wildtype mice (3 per group) were dosed subcutaneously at 0, 0.5, 1.5, 5 and 10 mg/kg (6aS)-6-methyl-5,6,6a,7-tetrahydro-4H-dibenzo[de,g]quinoline-10,11-diol hydrochloride for 7 days once daily. One animal in the 10 mg/kg dosing group was actually dosed 15 mg/kg on Day 1. To prepare the dosing solutions, (6aS)-6-methyl-5,6,6a,7-tetrahydro-4H-dibenzo[de,g]quinoline-10,11-diol was pre-weighed into bijous and stored in foil.

[2] = Example 4 mouse weights in TDP-43^Q331K mouse model; assay type: in vivo; settings: TDP-43^Q331K mice
Description: Following genotyping, transgenic females were block randomized into three different dosing groups: vehicle once daily, 2.5 mg/kg (6aS)-6-methyl-5,6,6a,7-tetrahydro-4H-dibenzo[de,g]quinoline-10,11-diol twice daily and 5 mg/kg (6aS)-6-methyl-5,6,6a,7-tetrahydro-4H-dibenzo[de,g]quinoline-10,11-diol once daily. The doses were selected based on results of previous internal studies. Animals were weighed daily before dosing and dosed subcutaneously at 10 ml/kg with a solution of 0.5 mg/ml (6aS)-6-methyl-5,6,6a,7-tetrahydro-4H-dibenzo[de,g]quinoline-10,11-diol for the 5 mg/kg dose and 0.25 mg/ml for the 2.5 mg/kg dose. Where animals were dosed twice a day, the doses were at least 6 hours apart and the dosing solution was freshly made for the second dose of the day.
The study was designed with two main cohorts of mice. One cohort was dosed from 25 days of age until 6 months of age and mice had behavioral testing throughout the study and consisted of 14 mice per group. The other satellite cohort was dosed from 25 days of age until 3 months of age, with no behavioral testing and consisted of 6 mice per group for target engagement and histological assessment. Behavioral tests that were carried out during the experiment were: accelerated rotarod test, gait analysis, and electrophysiology.
Animals were weighed daily before dosing to calculate dose volume. […]

[3] = system: NQO1; assay: Example 5 western blot protein analysis in induced astrocytes; assay type: cell-based; settings: human iAstrocytes (CTR, C9orf72, sALS, SOD1 donors), 10 uM, 48 hours treatment
From the text: Induced NPCs were generated from adult human fibroblasts from patients who had been diagnosed with ALS and from age-matched healthy controls, using an approach reported previously (Kim et al PNAS, […]. 108(19), 7838-7843; Meyer et al., PNAS, 2014. 111(2), 829-832). Induced NPCs are differentiated into induced astrocytes (iAstrocytes) by culturing the progenitors in iAstrocyte medium for a total of 7 days with a medium change at day 3.
Cells were scraped from 10 cm dishes and cell pellets were lysed in ice cold IP lysis buffer (150 mM NaCl, 50 mM HEPES, 1 mM EDTA, 1 mM DTT, 0.5% (v/v) Triton X-100, protease inhibitor cocktail, pH 8.0) for 15 minutes and further homogenized using a 25-gauge needle and syringe. Protein samples were separated by SDS-Polyacrylamide Gel Electrophoresis and then semi-dry transferred onto nitrocellulose membranes. Membranes were blotted with Anti-NQO1—1:1000 (5% milk/TBST); rabbit; abcam; ab34173 at 4° C. overnight and anti-Beta-actin—1:5,000 (5% milk/TBST); mouse; abcam; ab6276 clone AC-15 at 4° C. overnight.

[4] = system: heat shock protein Hspa8 and Hspa1a; assay: Example 3 in vivo pharmacodynamic study via oral dosing: RT-qPCR of brain; settings: mouse brain, 25 mg/kg oral once daily 4 days; for Relative expression of Hspa1a normalized with Group 1 / Relative expression of Hspa8 normalized with Group 1: normalized to Actb
Description: Wildtype mice were dosed orally at 25 mg/kg (6aS)-6-methyl-5,6,6a,7-tetrahydro-4H-dibenzo[de,g]quinoline-10,11-diol for 4 days once daily.
A total of 36 mice were randomly divided into twelve groups. Each group had 3 mice. After oral administration of (6aS)-6-methyl-5,6,6a,7-tetrahydro-4H-dibenzo[de,g]quinoline-10,11-diol once a day for 4 consecutive days, brains of mice in each group were sampled individually at the time point of 0, 5, 15, 30 min, 1, 2, 3, 4, 8, 12, 24 and 48 hour post the last oral dose. A quarter of whole brain from each mouse in every time group underwent a real-time quantitative polymerase chain reaction (RT-qPCR) analysis. Before RNA extraction, brain tissues were frozen immediately in liquid nitrogen, and were transferred to −80° C. until further use.
Total RNA from 36 frozen brain samples were extracted using Trizol reagent (Invitrogen, Carlsbad, Calif., USA, 15596018) according to the manufacturer's instructions. After extraction, the integrity of total RNA was be checked by 1% agarose gel staining with ethidium bromide as well as by nanodrop (Thermo Fisher, USA). Then, 2 μg of total RNA was used for reverse transcription by M-MLV Reverse Transcriptase (Invitrogen, 28025-013) with gDNA removal (NEB, M0303S). qRT-PCR analysis was performed using LightCycler® 480 Probe Master (4887301001, Roche, Basel, Switzerland) and the Roche LightCycler480 (Roche). The data from triplicate experiments were subjected to statistical analysis and the target genes were normalized against the levels of actin beta (Actb) mRNA. The primers are listed as follows: […]

[5] = Group 3 (15 min) post last dose
[6] = Group 4 (30 min) post last dose
[7] = Group 10 (12 Hr) post last dose
[8] = Group 11 (24 Hr) post last dose
[9] = Group 12 (48 Hr) post last dose

`CN1CCc2cccc3c2[C@@H]1Cc1ccc(O)c(O)c1-3` [(6aS)-6-methyl-5,6,6a,7-tetrahydro-4H-dibenzo[de,g]quinoline-10,11-diol] gave a Gclm gene induction ([1]; 6 hours post final dose) of 1.51 fold, a Hmox1 gene induction ([1]; 6 hours post final dose) of 2.02 fold and a Nqo1 gene induction ([1]; 6 hours post final dose) of 1.04 fold. It also gave a Nrf1 gene induction ([1]; 6 hours post final dose) of 2.39 fold, a Pgc1a gene induction ([1]; 6 hours post final dose) of 1.71 fold and a Gclm gene induction ([1]; 24 hours post final dose) of 1.45 fold. It also gave a Hmox1 gene induction ([1]; 24 hours post final dose) of 2.11 fold, a Nqo1 gene induction ([1]; 24 hours post final dose) of 1.32 fold and a Nrf1 gene induction ([1]; 24 hours post final dose) of 1.58 fold. For the same compound, the Pgc1a gene induction ([1]; 24 hours post final dose) was 1.70 fold, the “mouse weight compared to the vehicle dosing group” value ([2]; 3-month cohort, either dosing group (2.5 mg/kg twice daily, 5 mg/kg once daily s.c.)) was “no significant difference” and the “mouse weight compared to the vehicle dosing group” value ([2]; 6-month cohort, 2.5 mg/kg dosing group, from 121 days of age until the end of the study) was “significant decrease”. The “NQO1 protein (western blot quantification) compared to DMSO treatment” value [3] was “significant increase”, the “Relative expression of Hspa1a normalized with Group 1” value ([4]; Group 1 (0 min) post last dose) was 1.00 and the “Relative expression of Hspa8 normalized with Group 1” value ([4]; Group 1 (0 min) post last dose) was 1.00. For the same compound, the “Relative expression of Hspa1a normalized with Group 1” value ([4]; Group 2 (5 min) post last dose) was 0.96, the “Relative expression of Hspa8 normalized with Group 1” value ([4]; Group 2 (5 min) post last dose) was 0.85 and the “Relative expression of Hspa1a normalized with Group 1” value [4, 5] was 1.05. For the same compound, the “Relative expression of Hspa8 normalized with Group 1” value [4, 5] was 0.89, the “Relative expression of Hspa1a normalized with Group 1” value [4, 6] was 1.06 and the “Relative expression of Hspa8 normalized with Group 1” value [4, 6] was 0.91. The “Relative expression of Hspa1a normalized with Group 1” value ([4]; Group 5 (1 Hr) post last dose) was 0.90, the “Relative expression of Hspa8 normalized with Group 1” value ([4]; Group 5 (1 Hr) post last dose) was 0.92 and the “Relative expression of Hspa1a normalized with Group 1” value ([4]; Group 6 (2 Hr) post last dose) was 1.02. For the same compound, the “Relative expression of Hspa8 normalized with Group 1” value ([4]; Group 6 (2 Hr) post last dose) was 0.96, the “Relative expression of Hspa1a normalized with Group 1” value ([4]; Group 7 (3 Hr) post last dose) was 1.10 and the “Relative expression of Hspa8 normalized with Group 1” value ([4]; Group 7 (3 Hr) post last dose) was 0.96. The “Relative expression of Hspa1a normalized with Group 1” value ([4]; Group 8 (4 Hr) post last dose) was 1.09, the “Relative expression of Hspa8 normalized with Group 1” value ([4]; Group 8 (4 Hr) post last dose) was 1.01 and the “Relative expression of Hspa1a normalized with Group 1” value ([4]; Group 9 (8 Hr) post last dose) was 2.25*. For the same compound, the “Relative expression of Hspa8 normalized with Group 1” value ([4]; Group 9 (8 Hr) post last dose) was 1.11, the “Relative expression of Hspa1a normalized with Group 1” value [4, 7] was 1.33* and the “Relative expression of Hspa8 normalized with Group 1” value [4, 7] was 1.17**. For the same compound, the “Relative expression of Hspa1a normalized with Group 1” value [4, 8] was 1.04, the “Relative expression of Hspa8 normalized with Group 1” value [4, 8] was 1.14** and the “Relative expression of Hspa1a normalized with Group 1” value [4, 9] was 1.04. For the same compound, the “Relative expression of Hspa8 normalized with Group 1” value [4, 9] was 0.99, the “Hspa1a mRNA level compared with group 1 (in words)” value ([4]; group 9 and 10 (8 Hr, 12 Hr)) was “significant increase” and the “mRNA expression levels of Hspa8 compared with group 1 (in words)” value ([4]; group 10 and 11 (12 Hr, 24 Hr)) was “slight increase”. For the same compound, the “group in which Hspa1a mRNA level reached a peak” value ([4]; group 9 = 8 Hr post last dose) was “group 9”.
